{"source": "patent US7777051B2", "about": "“Asymmetric benzimidazoles and related compounds as potassium channel modulators” (Icagen, Inc., priority 2003, dated 2010)", "origin": "cited, not measured here", "data": [{"biological_target": "SK2 subtype channels (Rattus norvegicus, UniProt P70604)", "settings": "patch clamp", "values": [{"compound": "CN(C)CCC=C1c2ccccc2CCc2ccccc21", "note": "[amitriptyline]", "block of SK2 channel currents": "block SK2 channel currents with micromolar affinity"}, {"compound": "Nc1c2c(nc3ccccc13)CCCC2", "note": "[tacrine]", "block of SK2 channel currents": "block SK2 channel currents with micromolar affinity"}, {"compound": "NC(=O)N1c2ccccc2C=Cc2ccccc21", "note": "[carbamazepine]", "block of SK2 channel currents": "block SK2 channel currents with micromolar affinity"}]}, {"test_system": "SK channels", "settings": "not given", "values": [{"compound": "O=C1N(c2ccccc2)c2ccccc2C1(Cc1ccncc1)Cc1ccncc1", "note": "[linopirdine]", "inhibition of SK channels": "ineffective at inhibiting SK channels"}]}, {"biological_target": "T1, recombinant human SK4 (hIK1 or hKCa4) channels (Homo sapiens, UniProt O15554+P0DP23)", "T1 construct": "host or cells: HEK 293 cells (transfected, membrane patches)", "settings": "applied to the inside of membrane patches, concentrations up to 100 μM; HEK 293", "values": [{"compound": "Barium", "activation of SK4 channels": "activated SK4 channels in a concentration-dependent manner"}, {"compound": "cadmium", "activation of SK4 channels": "activated SK4 channels in a concentration-dependent manner"}, {"compound": "magnesium", "activation of SK4 channels": "did not activate the SK4 channels"}, {"compound": "strontium", "activation of SK4 channels": "activated SK4 channels in a concentration-dependent manner"}, {"compound": "zinc", "activation of SK4 channels": "did not activate the SK4 channels"}, {"compound": "lead", "activation of SK4 channels": "activated SK4 channels in a concentration-dependent manner"}, {"compound": "cobalt", "activation of SK4 channels": "did not activate the SK4 channels"}, {"compound": "calcium", "activation of SK4 channels": "activated SK4 channels in a concentration-dependent manner"}, {"compound": "iron", "activation of SK4 channels": "did not activate the SK4 channels"}]}]}
